From patent publication US10463649B2, “Inhibitors of Mc1-1 as drugs to overcome resistance to BRAF inhibitors and MEK inhibitors” (Texas Tech University System, priority 2015, dated 2019)
pIC50: −log10 of the molar value.

Key:
Assay type in all cases: cell-based
A375 cells = experiment: Development of resistance to vemurafenib in A375 cells, cytotoxicity evaluated intermittently by SRB assay; settings: for Fold Resistance: A375; for IC50: Homo sapiens
Procedure: (§1) Generation of BRAF-inhibitor resistant cell lines. Vemurafenib resistant clones of A375 and SK-MEL-28 were generated by continuous exposure of cells to escalating concentrations of vemurafenib over a period of one year. The cells were treated with vemurafenib for 72 hours after which fresh media was added to the cells. In all, cells were exposed weekly to two treatments of vemurafenib for 72 hours each with a 24 hour recovery period between the treatments. […] Similarly, dabrafenib resistant cells were cultured by incubating the cells with increasing concentrations of the drug for a period of 3 months as described above. The fold resistant was intermittently evaluated by cytotoxicity analysis. Vemurafenib resistant cell lines were referred to as SK-MEL-28-R or A375-R and dabrafenib resistant cell lines were referred to as A375-DR, SK-MEL-28-DR or WM-239-DR. […] Here, A375 cells were injected subcutaneously in nude mice. When palpable tumors were formed, the mice were orally treated with 30 mg/kg vemurafenib twice a day. After a month, the tumors the resisted vemurafenib treatments were extracted and cultured in vitro.
(§2) Cells were exposed to two treatments of vemurafenib in a week for 72 hours each. Cytotoxicity of these cells was evaluated intermittently by sulforhodamine B assay. […] Cells were exposed to two treatments of vemurafenib in a week for 72 hours each. Cytotoxicity of these cells was evaluated intermittently by sulforhodamine B assay.

SK-MEL-28-R cells = experiment: SRB cell survival in vemurafenib resistant SK-MEL-28-R cells
Procedure: (§3) Each study was performed three times independently. Mcl-1 inhibitor overcomes vemurafenib resistance in melanoma cells. […] The cell survival was evaluated by sulforhodamine B assay.
(§4) FIGS. 4A to 4D show the silencing Mcl-1 reverses vemurafenib resistance. […] The cell survival was evaluated by sulforhodamine B assay.
as §1
(§5) Mcl-1 silencing. Silencing of Mcl-1 was achieved according to the protocol described by the inventors (27). Briefly, 0.3×10^6 cells were plated in OPTI-MEM without antibiotics and transfected with either Mcl-1 siRNA or scrambled siRNA. Complexes were prepared by incubating […] siRNA with 8 μl siPORT transfection reagent in 200 μl OPTI-MEM media without serum or antibiotic for 20 minutes. These complexes were then added to the cells. Six hours after transfection, complexes were replaced with fresh medium.

A375-R cells = experiment: SRB cell survival in vemurafenib resistant A375-R cells
Procedure: as §3, §4, §1, §5

SK-MEL-28 cells = experiment: Development of resistance to vemurafenib in SK-MEL-28 cells, cytotoxicity evaluated intermittently by SRB assay; settings: for IC50: Homo sapiens; for Fold Resistance: SK-MEL-28
Procedure: as §1, §2

[1] = system: A375 cells transfected with Mcl-1 plasmid; experiment: SRB cell survival in A375 cells transfected with Mcl-1 plasmid; settings: Mcl-1 overexpressing A375 (transient), 72 hours
Procedure: FIG. 3A (A375 cells) and FIG. 3B SK-MEL-28 cells untransfected or transfected with Mcl-1 plasmid were treated with 0.2 μM and 0.4 μM vemurafenib for 72 hours. The cell survival was evaluated by sulforhodamine B assay. […] FIG. 3E A375 and A375-Mcl-1+/+ or FIG. 3F, SK-MEL-28 and SK-MEL-28-Mcl-1+/+ were treated with 0.2 μM and 0.4 μM vemurafenib for 72 hours. The cell survival was evaluated by sulforhodamine B assay.
FIG. 8A (A375) and FIG. 8B (SK-MEL-28) untransfected or transfected with Mcl-1 plasmid were treated with 10 nM dabrafenib or 2 nM trametinib for 72 hours. FIG. 8C A375 and FIG. 8D SK-MEL 28 cells untransfected or transfected with Mcl-1 plasmid were treated with 400 nM vemurafenib or 2 nM trametinib for 72 hours. The cell survival was evaluated by sulforhodamine B assay.
Mcl-1 overexpression. A375 or SK-MEL-28 cells were transiently or stably transfected with plasmid overexpressing Mcl-1 by nucleofection kit (Lonza, Basel, Switzerland) according to manufacturer's protocol and previously described by the inventors (26). Briefly, 2×10^6 cells were suspended in a reaction mixture from the kit specific to the cell line (Kit V for A375 and Kit R for SK-MEL-28 cells). The cells were transferred to the cuvettes and nucleofected using the nucleofector instrument (Amaxa, Cologne, Germany). […]

CCCS(=O)(=O)Nc1ccc(F)c(C(=O)c2c[nH]c3ncc(-c4ccc(Cl)cc4)cc23)c1F [vemurafenib]
Fold Resistance (A375 cells; Month 0, vemurafenib 0 μM): 1 | Fold Resistance (A375 cells; Month 1, vemurafenib 0.2 μM): 2.15 | Fold Resistance (A375 cells; Month 2, vemurafenib 0.2 μM): 2.85 | Fold Resistance (A375 cells; Month 3, vemurafenib 0.4 μM): 4.1 | Fold Resistance (A375 cells; Month 4, vemurafenib 0.4 μM): 4.5 | Fold Resistance (A375 cells; Month 5, vemurafenib 0.8 μM): 4.85 | Fold Resistance (A375 cells; Month 6, vemurafenib 0.8 μM): 5.6 | Fold Resistance (A375 cells; Month 7, vemurafenib 1 μM): 8.5 | Fold Resistance (A375 cells; Month 8, vemurafenib 1 μM): 9.7 | Fold Resistance (A375 cells; Month 9, vemurafenib 4 μM): 12.5 | Fold Resistance (A375 cells; Month 10, vemurafenib 8 μM): 18.4 | Fold Resistance (A375 cells; Month 11, vemurafenib 8 μM): 26 | Fold Resistance (A375 cells; Month 12, vemurafenib 10 μM): 30 | IC50 (A375 cells; A-375, Month 0, vemurafenib 0 μM): 0.1 µM | IC50 (A375 cells; A-375, Month 1, vemurafenib 0.2 μM): 0.215 µM | IC50 (A375 cells; A-375, Month 2, vemurafenib 0.2 μM): 0.285 µM | IC50 (A375 cells; A-375, Month 3, vemurafenib 0.4 μM): 0.41 µM | IC50 (A375 cells; A-375, Month 4, vemurafenib 0.4 μM): 0.45 µM | IC50 (A375 cells; A-375, Month 5, vemurafenib 0.8 μM): 0.485 µM | IC50 (A375 cells; A-375, Month 6, vemurafenib 0.8 μM): 0.56 µM | IC50 (A375 cells; A-375, Month 7, vemurafenib 1 μM): 0.85 µM | IC50 (A375 cells; A-375, Month 8, vemurafenib 1 μM): 0.97 µM | IC50 (A375 cells; A-375, Month 9, vemurafenib 4 μM): 1.25 µM | IC50 (A375 cells; A-375, Month 10, vemurafenib 8 μM): 1.84 µM | IC50 (A375 cells; A-375, Month 11, vemurafenib 8 μM): 2.6 µM | IC50 (A375 cells; A-375, Month 12, vemurafenib 10 μM): 3 µM | Decrease of cell survival (SK-MEL-28-R cells; SK-MEL-28-R cells, Mcl-1 silenced by siRNA, then 0.4 μM vemurafenib 72 hours): 55% | pIC50 (SK-MEL-28-R cells; SK-MEL-28R cells, 72 hours): 5.48 | Decrease of cell survival (A375-R cells; A375-R cells, Mcl-1 silenced by siRNA, then 0.4 μM vemurafenib 72 hours): 65% | pIC50 (A375-R cells; A375R cells, 72 hours): 5.52 | IC50 (SK-MEL-28 cells; SK-MEL-28, Month 0, vemurafenib 0 μM): 0.075 µM | IC50 (SK-MEL-28 cells; SK-MEL-28, Month 1, vemurafenib 0.2 μM): 0.158 µM | IC50 (SK-MEL-28 cells; SK-MEL-28, Month 2, vemurafenib 0.2 μM): 0.162 µM | IC50 (SK-MEL-28 cells; SK-MEL-28, Month 3, vemurafenib 0.4 μM): 0.264 µM | IC50 (SK-MEL-28 cells; SK-MEL-28, Month 4, vemurafenib 0.4 μM): 0.315 µM | IC50 (SK-MEL-28 cells; SK-MEL-28, Month 5, vemurafenib 0.8 μM): 0.61 µM | IC50 (SK-MEL-28 cells; SK-MEL-28, Month 6, vemurafenib 0.8 μM): 0.673 µM | IC50 (SK-MEL-28 cells; SK-MEL-28, Month 7, vemurafenib 1 μM): 0.735 µM | IC50 (SK-MEL-28 cells; SK-MEL-28, Month 8, vemurafenib 1 μM): 0.754 µM | IC50 (SK-MEL-28 cells; SK-MEL-28, Month 9, vemurafenib 4 μM): 0.824 µM | IC50 (SK-MEL-28 cells; SK-MEL-28, Month 10, vemurafenib 8 μM): 1.24 µM | IC50 (SK-MEL-28 cells; SK-MEL-28, Month 11, vemurafenib 8 μM): 1.86 µM | IC50 (SK-MEL-28 cells; SK-MEL-28, Month 12, vemurafenib 10 μM): 3.3 µM | Fold Resistance (SK-MEL-28 cells; Month 0, vemurafenib 0 μM): 1 | Fold Resistance (SK-MEL-28 cells; Month 1, vemurafenib 0.2 μM): 2.1 | Fold Resistance (SK-MEL-28 cells; Month 2, vemurafenib 0.2 μM): 2.24 | Fold Resistance (SK-MEL-28 cells; Month 3, vemurafenib 0.4 μM): 3.52 | Fold Resistance (SK-MEL-28 cells; Month 4, vemurafenib 0.4 μM): 4.2 | Fold Resistance (SK-MEL-28 cells; Month 5, vemurafenib 0.8 μM): 8.13 | Fold Resistance (SK-MEL-28 cells; Month 6, vemurafenib 0.8 μM): 8.97 | Fold Resistance (SK-MEL-28 cells; Month 7, vemurafenib 1 μM): 9.8 | Fold Resistance (SK-MEL-28 cells; Month 8, vemurafenib 1 μM): 10.05 | Fold Resistance (SK-MEL-28 cells; Month 9, vemurafenib 4 μM): 10.99 | Fold Resistance (SK-MEL-28 cells; Month 10, vemurafenib 8 μM): 16.48 | Fold Resistance (SK-MEL-28 cells; Month 11, vemurafenib 8 μM): 24.85 | Fold Resistance (SK-MEL-28 cells; Month 12, vemurafenib 10 μM): 44 | Reduction of cell survival ([1]; 0.2 μM vemurafenib): 18% | Reduction of cell survival ([1]; 0.4 μM vemurafenib): 24%
